Laboratory results reported in patent publication US6552197B2, “Condensed-hexacyclic compounds and a process therefor” (Daiichi Pharmaceutical Co., Ltd., priority 1995, dated 2003).

Legend:
[1] = Color change on storage at high relative humidity, measured by a color difference meter; type: physicochemical; conditions: for color change observed on stored sample: stored at a high relative humidity
Experimental: The control product was stored at a relative humidity of 93% and the degree of a color change was measured.

[2] = Hygroscopicity test (weight changes due to moisture absorption); type: physicochemical; conditions: exposed to humidity of 83% and 93% at 25° C. over 5 days; FIG. 1
Experimental: A hygroscopicity test was conducted on (lS,9S)-1-amino-9-ethyl-5-fluoro-2,3-dihydro-9-hydroxy-4-methyl-1H,12H-benzo[de]pyrano[3′,4′:6,7]indolizino[1,2-b]-quinoline-10,13(9H,15H)-dione•methanesulfonate•dihydrate according to the present invention and (1S,9S)-1-amino-9-ethyl-5-fluoro-2,3-dihydro-9-hydroxy-4-methyl-1H,12H-benzo[de]pyrano[3′,4′:6,7]indolizino[1,2-b]-quinoline-10,13(9H,15H)-dione-hydrochloride (control product).
Described specifically, each salt was exposed to high-humidity conditions of 83% and 93% at 25° C. Over a period of 5 days, its weight changes were investigated.

[3] = stored for 0 month, relative humidity 93%
[4] = stored for 1 month, 25° C., relative humidity 93%
[5] = stored for 2 months, 25° C., relative humidity 93%

SMILES | decomposition by moisture absorption (conclusion from color change) ([1]; stored at 25° C., relative humidity 93%) | color change observed on stored sample [1] | Color [1, 3] | Lab (chromaticity, brightness) [1, 3] | Color [1, 4] | Lab (chromaticity, brightness) [1, 4] | ΔE(H) (degree of a color difference) [1, 4] | Color [1, 5] | Lab (chromaticity, brightness) [1, 5] | ΔE(H) (degree of a color difference) [1, 5] | weight changes due to moisture absorption (hygroscopicity) [2]
CC[C@@]1(O)C(=O)OCc2c1cc1n(c2=O)Cc2c-1nc1cc(F)c(C)c3c1c2[C@@H](N)CC3.Cl [control product, (1S,9S)-1-amino-9-ethyl-5-fluoro-2,3-dihydro-9-hydroxy-4-methyl-1H,12H-benzo[de]pyrano[3′,4′:6,7]indolizino[1,2-b]-quinoline-10,13(9H,15H)-dione-hydrochloride] | decomposes by moisture absorption | color change (yellowish brown—brown; originally: yellow) was observed | Yellow | 81.68-81.69 | brown-yellow | 74.96-75.23 | 7.16-7.38 | brown-yellow | 62.65-67.43 | 14.53-19.24 | high hygroscopicity and a fast weight change due to hygroscopicity
CC[C@@]1(O)C(=O)OCc2c1cc1n(c2=O)Cc2c-1nc1cc(F)c(C)c3c1c2[C@@H](N)CC3 [methanesulfonate, (1S,9S)-1-Amino-9-ethyl-5-fluoro-2,3-dihydro-9-hydroxy-4-methyl-1H,12H-benzo[de]pyrano[3′,4′:6,7]-indolizino[1,2-b]quinoline-10,13(9H,15H)-dione•methanesulfonate•dihydrate] |  | No color change |  |  |  |  |  |  |  |  | a gradual and small change
